Results as given in patent US9913836B2, “Anticholinergic neuroprotective composition and methods” (priority 2012, dated 2018).
Values joined by “and” are separate entries in the source; they are usually repeats but may differ in a detail not shown here. Identical values can stand only once. “Also recorded” adds a separate entry of the source.

Tests used:
[1] = system: acetylcholinesterase / butyrylcholinesterase; settings: cited from earlier work
[2] = cited from earlier work
[3] = Birks 2009; Forette 1999; cited from earlier work
[4] = Same study: peak plasma levels of rivastigmine given with placebo or active trospium; type: in vivo, human
Procedure: (§1) In this single-blind crossover study, healthy volunteers were hospitalized at a Phase I Center (Forenap, Rouffach, France) for the once daily oral administration of ascending doses of rivastigmine hydrogen tartrate (“rivastigmine”), (3 mg to a possible maximum of 24 mg in 3 mg increments as tolerated) together with placebo trospium and then with ascending amounts of rivastigmine (3 mg to a possible maximum of 24 mg as tolerated) together with active trospium. Placebo trospium or active trospium (at a fixed dose of 40 mg per day) were given orally once daily 3 hours before rivastigmine administration. Venous blood was collected for the measurement of plasma drug levels at their nominal peaks (approximately 1 hour after rivastigmine administration). Subjects were monitored clinically for 4 hours after drug administration or until all adverse events had subsided.

[5] = Single-blind crossover study in healthy volunteers: maximum tolerated dose and adverse events of rivastigmine given with placebo or active trospium; type: in vivo, human
Procedure: as §1

[6] = open-label, 1.5 mg up to 6 mg twice daily, 26 weeks; no worsening of motor function; cited from earlier work
[7] = in vivo; cited from earlier work
[8] = solifenacin 10 mg versus placebo
Procedure: Safety and tolerability were evaluated based on subject reports, physician observations and examinations, and the performance of standard laboratory tests.

Tg2576 mouse model of AD = settings: in vivo; cited from earlier work
[9] = subject (c), dose above tolerated dose

What does the source list for `CCN(C)C(=O)Oc1cccc([C@H](C)N(C)C)c1` [rivastigmine, (S)—N-Ethyl-N-methyl-3-[1-(dimethylamino)ethyl]-phenyl carbamate]?
Affinity / selectivity for acetylcholinesterase versus butyrylcholinesterase [1]: inhibits both enzymes with similar affinity; Benefits on cognitive and global measures relevant to dementia ([2]; patients with dementias of the Alzheimer type): small, but statistically significant, benefits; Cognitive improvement in patients with Alzheimer's disease on doubling the dose ([2]; skin patches instead of immediate release tablets, without increasing side effects): significantly increased the amount of cognitive improvement; Reported average maximum tolerated single oral dose of rivastigmine [3]: about 4.5 mg; Average peak plasma rivastigmine with trospium relative to without trospium ([4]; 88 ng/ml versus 30.7 ng/ml): 2.9 times; Average peak plasma rivastigmine with trospium relative to literature value ([4]; 88 ng/ml versus about 12 ng/ml reported): ~7.3 times; Average peak plasma concentration of rivastigmine given without trospium ([4]; average of 2 subjects): 30.7 ng/mL; Peak plasma (maximum tolerated) concentration of rivastigmine given with placebo trospium ([4]; venous blood about 1 hour after 15 mg rivastigmine, individual subjects (b), (c)): 53 ng/mL and 8.3 ng/mL; Peak plasma (maximum tolerated) concentration of rivastigmine given with 40 mg of trospium ([4]; venous blood about 1 hour after rivastigmine 24 mg (a) or 18 mg (b, c), individual subjects): 39 ng/mL and 94 ng/mL and 131 ng/mL; Tolerated dose of rivastigmine given with placebo trospium ([5]; individual healthy volunteers (a)-(c), once daily oral ascending doses 3 to 24 mg, placebo trospium 3 hours before): 9 mg and 15 mg; Tolerated dose of rivastigmine given with 40 mg of trospium ([5]; individual healthy volunteers (a)-(c), once daily oral ascending doses 3 to 24 mg, trospium 40 mg oral 3 hours before): 24 mg and 18 mg; Adverse events at the tolerated rivastigmine dose given with placebo trospium ([5]; individual subjects, rivastigmine 9 mg (a), 15 mg (b, c)): moderate nausea and mild somnolence; also recorded: mild dry mouth; Adverse events at the tolerated rivastigmine dose given with 40 mg of trospium ([5]; individual subjects, rivastigmine 24 mg (a), 18 mg (b, c)): mild nausea as well as abdominal pain, headache and respiratory difficulty in addition to moderate anorexia; also recorded: mild dry mouth and moderate urinary difficulty; Tolerated rivastigmine dose with 40 mg trospium as multiple of the maximum recommended single oral dose (6 mg) ([5]; subject (a): 4, subjects (b) and (c): 3): 4 times and 3 times; Cognitive functions in PD patients with dementia [6]: may improve the cognitive functions

With `O=C(O[C@H]1C[C@H]2CC[C@@H](C1)[N+]21CCCC1)C(O)(c1ccccc1)c1ccccc1` [Trospium, 3-(2-hydroxy-2,2-diphenylacetoxy)-spiro[bicyclo[3.2.1]octane-8,1′-pyrrolidin]-1′-ium] as the molecule, how does the “Average plasma half-life of the absorbed amount” value [7] read?
The value was “about 18 hours”.

What does the source list for `COc1cc2c(cc1OC)C(=O)C(CC1CCN(Cc3ccccc3)CC1)C2` (racemic) [donepezil, (±)-2,3-dihydro-5,6-dimethoxy-2-[[1-(phenylmethyl)-4-piperidinyl]methyl]-1H-inden-1-one]?
Increase of peak donepezil levels with combined therapy [8]: ~2.6 fold; Adverse events at the tolerated donepezil dose given with placebo solifenacin (individual subjects, donepezil 5 mg (a, b, c, f), 15 mg (d), 30 mg (e)): no adverse events; also recorded: severe abdominal pain, weakness, moderate anorexia, sweating and dry mouth; also recorded: moderate weakness, mild dizziness and moderate hypersalivation; Adverse events at the tolerated donepezil dose given with 10 mg of solifenacin (individual subjects, donepezil 10 mg (a, f), 15 mg (b, d), 5 mg (c), 40 mg (e)): moderate nausea and moderate dizziness; also recorded: no adverse events; also recorded: moderate abdominal pain and severe headache; Subjects in whom solifenacin co-treatment enabled substantially higher daily doses of donepezil (solifenacin 10 mg versus placebo): 4 out of 6; Adverse events with 10 mg of donepezil and placebo solifenacin [9]: severe anorexia, nausea, retching, vomiting, weakness, headache, moderate diarrhea, and mild sweating, dizziness, somnolence, hypersalivation, muscular cramps; Adverse events with 10 mg of donepezil given with 10 mg of solifenacin [9]: severe nausea and retching; Increase of the donepezil MTD after donepezil/solifenacin combination (the other subjects (a), (b), (e), (f)): 33-300%; A-beta deposition in Tg2576 mice (Tg2576 mouse model of AD): did not affect; Effect on A-beta and synaptic density parameters at lower doses (Tg2576 mouse model of AD): not effective; Learning and memory functions in Tg2576 mice (Tg2576 mouse model of AD): improved; Synaptic density in the molecular layer of the dentate gyrus (Tg2576 mouse model of AD): significantly increased
